# Legend:
# Format in all cases: in vivo
# [1] = system: velvetleaf (Abutilon theophrasti); assay: Test G Post-Emergence Protocol; settings: Abutilon theophrasti, post-emergence, 312 h, read-out: Velvetleaf damage rating; for pest or weed control at 15.625 g/ha: 15.625 g ai/ha, evaluated after 13 days (100=total damage to plant; 0=no damage to plant); for pest or weed control at 62.5 g/ha: 62.5 g ai/ha; for pest or weed control at 62.5 g/ha / pest or weed control at 250 g/ha: evaluated after 13 days, 100=total damage to plant, 0=no damage to plant; for pest or weed control at 250 g/ha: 250 g ai/ha
# How it was run: (§1)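 Eight days post-sowing, plants received a spray of test compound (acetone/water 50:50, 0.5% Tween 20) at 15.625, 62.5 or 250 g/ha. Glasshouse regime thereafter: 24/16 °C, 14 h light, 65% humidity. Assessment after 13 days on a 0–100 damage scale.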
# [2] = system: redroot pigweed (Amaranthus retroflexus); assay: Test G Post-Emergence Protocol; settings: Amaranthus retroflexus, post-emergence, 312 h, read-out: Pigweed, Redroot damage rating; for pest or weed control at 15.625 g/ha: 15.625 g ai/ha, evaluated after 13 days (100=total damage to plant; 0=no damage to plant); for pest or weed control at 62.5 g/ha: 62.5 g ai/ha; for pest or weed control at 62.5 g/ha / pest or weed control at 250 g/ha: evaluated after 13 days, 100=total damage to plant, 0=no damage to plant; for pest or weed control at 250 g/ha: 250 g ai/ha
# How it was run: as §1
# [3] = system: ivy-leaved morning glory (Ipomoea hederacea); assay: Test G Post-Emergence Protocol; settings: Ipomoea, post-emergence, 312 h, read-out: Morningglory, Ivy-leaved damage rating; for pest or weed control at 15.625 g/ha: 15.625 g ai/ha, evaluated after 13 days (100=total damage to plant; 0=no damage to plant); for pest or weed control at 62.5 g/ha: 62.5 g ai/ha; for pest or weed control at 62.5 g/ha / pest or weed control at 250 g/ha: evaluated after 13 days, 100=total damage to plant, 0=no damage to plant; for pest or weed control at 250 g/ha: 250 g ai/ha
# How it was run: as §1
# corn (Zea mays) [4] = assay: Test G Post-Emergence Protocol; settings: Zea mays, post-emergence, 312 h, read-out: Corn damage rating; for plant injury at 15.625 g/ha: 15.625 g ai/ha, evaluated after 13 days (100=total damage to plant; 0=no damage to plant); for plant injury at 62.5 g/ha: 62.5 g ai/ha; for plant injury at 62.5 g/ha / plant injury at 250 g/ha: evaluated after 13 days, 100=total damage to plant, 0=no damage to plant; for plant injury at 250 g/ha: 250 g ai/ha
# How it was run: as §1
# [5] = system: giant foxtail (Setaria faberi); assay: Test G Post-Emergence Protocol; settings: Setaria faberi, post-emergence, 312 h, read-out: Foxtail, Giant damage rating; for pest or weed control at 15.625 g/ha: 15.625 g ai/ha, evaluated after 13 days (100=total damage to plant; 0=no damage to plant); for pest or weed control at 62.5 g/ha: 62.5 g ai/ha; for pest or weed control at 62.5 g/ha / pest or weed control at 250 g/ha: evaluated after 13 days, 100=total damage to plant, 0=no damage to plant; for pest or weed control at 250 g/ha: 250 g ai/ha
# How it was run: as §1
# [6] = system: barnyardgrass (Echinochloa crus-galli); assay: Test G Post-Emergence Protocol; settings: Echinochloa crus-galli, post-emergence, 312 h, read-out: Barnyardgrass damage rating; for pest or weed control at 15.625 g/ha: 15.625 g ai/ha, evaluated after 13 days (100=total damage to plant; 0=no damage to plant); for pest or weed control at 62.5 g/ha: 62.5 g ai/ha; for pest or weed control at 62.5 g/ha / pest or weed control at 250 g/ha: evaluated after 13 days, 100=total damage to plant, 0=no damage to plant; for pest or weed control at 250 g/ha: 250 g ai/ha
# How it was run: as §1
# [7] = system: velvetleaf (Abutilon theophrasti); assay: Test G Pre-Emergence Protocol; settings: Abutilon theophrasti, pre-emergence, 312 h, evaluated after 13 days; for pest or weed control at 15.625 g/ha: 15.625 g ai/ha; for pest or weed control at 15.625 g/ha / pest or weed control at 250 g/ha: read-out: Velvetleaf damage rating (100=total damage to plant; 0=no damage to plant); for pest or weed control at 62.5 g/ha: 62.5 g ai/ha, 100=total damage to plant, 0=no damage to plant, read-out: Velvetleaf damage rating; for pest or weed control at 250 g/ha: 250 g ai/ha
# How it was run: (§2)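 Pots of seeds in standard soil were grown for one day in a glasshouse (24/16 °C day/night, 14 h light, 65% humidity), then sprayed with compound in acetone/water 50:50 with 0.5% Tween 20 at 15.625, 62.5 or 250 g/ha. Damage was scored after 13 days on a 0 (none) to 100 (total) scale.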
# [8] = system: redroot pigweed (Amaranthus retroflexus); assay: Test G Pre-Emergence Protocol; settings: Amaranthus retroflexus, pre-emergence, 312 h, evaluated after 13 days; for pest or weed control at 15.625 g/ha: 15.625 g ai/ha; for pest or weed control at 15.625 g/ha / pest or weed control at 250 g/ha: read-out: Pigweed, Redroot damage rating (100=total damage to plant; 0=no damage to plant); for pest or weed control at 62.5 g/ha: 62.5 g ai/ha, 100=total damage to plant, 0=no damage to plant, read-out: Pigweed, Redroot damage rating; for pest or weed control at 250 g/ha: 250 g ai/ha
# How it was run: as §2
# [9] = system: ivy-leaved morning glory (Ipomoea hederacea); assay: Test G Pre-Emergence Protocol; settings: Ipomoea, pre-emergence, 312 h, evaluated after 13 days; for pest or weed control at 15.625 g/ha: 15.625 g ai/ha; for pest or weed control at 15.625 g/ha / pest or weed control at 250 g/ha: read-out: Morningglory, Ivy-leaved damage rating (100=total damage to plant; 0=no damage to plant); for pest or weed control at 62.5 g/ha: 62.5 g ai/ha, 100=total damage to plant, 0=no damage to plant, read-out: Morningglory, Ivy-leaved damage rating; for pest or weed control at 250 g/ha: 250 g ai/ha
# How it was run: as §2
# corn (Zea mays) [10] = assay: Test G Pre-Emergence Protocol; settings: Zea mays, pre-emergence, 312 h, evaluated after 13 days; for plant injury at 15.625 g/ha: 15.625 g ai/ha; for plant injury at 15.625 g/ha / plant injury at 250 g/ha: read-out: Corn damage rating (100=total damage to plant; 0=no damage to plant); for plant injury at 62.5 g/ha: 62.5 g ai/ha, 100=total damage to plant, 0=no damage to plant, read-out: Corn damage rating; for plant injury at 250 g/ha: 250 g ai/ha
# How it was run: as §2
# [11] = system: giant foxtail (Setaria faberi); assay: Test G Pre-Emergence Protocol; settings: Setaria faberi, pre-emergence, 312 h, evaluated after 13 days; for pest or weed control at 15.625 g/ha: 15.625 g ai/ha; for pest or weed control at 15.625 g/ha / pest or weed control at 250 g/ha: read-out: Foxtail, Giant damage rating (100=total damage to plant; 0=no damage to plant); for pest or weed control at 62.5 g/ha: 62.5 g ai/ha, 100=total damage to plant, 0=no damage to plant, read-out: Foxtail, Giant damage rating; for pest or weed control at 250 g/ha: 250 g ai/ha
# How it was run: as §2
# [12] = system: barnyardgrass (Echinochloa crus-galli); assay: Test G Pre-Emergence Protocol; settings: Echinochloa crus-galli, pre-emergence, 312 h, evaluated after 13 days; for pest or weed control at 15.625 g/ha: 15.625 g ai/ha; for pest or weed control at 15.625 g/ha / pest or weed control at 250 g/ha: read-out: Barnyardgrass damage rating (100=total damage to plant; 0=no damage to plant); for pest or weed control at 62.5 g/ha: 62.5 g ai/ha, 100=total damage to plant, 0=no damage to plant, read-out: Barnyardgrass damage rating; for pest or weed control at 250 g/ha: 250 g ai/ha
# How it was run: as §2
SMILES,pest or weed control at 15.625 g/ha [1],pest or weed control at 62.5 g/ha [1],pest or weed control at 250 g/ha [1],pest or weed control at 15.625 g/ha [2],pest or weed control at 62.5 g/ha [2],pest or weed control at 250 g/ha [2],pest or weed control at 15.625 g/ha [3],pest or weed control at 62.5 g/ha [3],pest or weed control at 250 g/ha [3],plant injury at 15.625 g/ha (corn (Zea mays) [4]),plant injury at 62.5 g/ha (corn (Zea mays) [4]),plant injury at 250 g/ha (corn (Zea mays) [4]),pest or weed control at 15.625 g/ha [5],pest or weed control at 62.5 g/ha [5],pest or weed control at 250 g/ha [5],pest or weed control at 15.625 g/ha [6],pest or weed control at 62.5 g/ha [6],pest or weed control at 250 g/ha [6],pest or weed control at 15.625 g/ha [7],pest or weed control at 62.5 g/ha [7],other results
Cc1cc([C@H]2CN(C)C(=O)[C@@H]2C(=O)Nc2cccc(F)c2F)cnn1 (racemic) [Compound 1662],0%,0%,0%,0%,0%,0%,0%,0%,0%,0%,0%,0%,0%,0%,0%,0%,0%,0%,0%,0%,pest or weed control at 250 g/ha [7]: 0%; pest or weed control at 15.625 g/ha [8]: 0%; pest or weed control at 62.5 g/ha [8]: 0%; pest or weed control at 250 g/ha [8]: 0%; pest or weed control at 15.625 g/ha [9]: 0%; pest or weed control at 62.5 g/ha [9]: 0%; pest or weed control at 250 g/ha [9]: 0%; plant injury at 15.625 g/ha (corn (Zea mays) [10]): 0%; plant injury at 62.5 g/ha (corn (Zea mays) [10]): 0%; plant injury at 250 g/ha (corn (Zea mays) [10]): 0%; pest or weed control at 15.625 g/ha [11]: 0%; pest or weed control at 62.5 g/ha [11]: 0%; pest or weed control at 250 g/ha [11]: 0%; pest or weed control at 15.625 g/ha [12]: 0%; pest or weed control at 62.5 g/ha [12]: 0%; pest or weed control at 250 g/ha [12]: 0%
Cc1cc([C@H]2CN(C)C(=O)[C@@H]2C(=O)Nc2ccc(F)c(F)c2F)cnn1 (racemic) [Compound 1663],0%,0%,0%,0%,0%,0%,0%,0%,0%,0%,0%,0%,0%,0%,0%,0%,0%,0%,0%,0%,pest or weed control at 250 g/ha [7]: 0%; pest or weed control at 15.625 g/ha [8]: 0%; pest or weed control at 62.5 g/ha [8]: 0%; pest or weed control at 250 g/ha [8]: 0%; pest or weed control at 15.625 g/ha [9]: 0%; pest or weed control at 62.5 g/ha [9]: 0%; pest or weed control at 250 g/ha [9]: 0%; plant injury at 15.625 g/ha (corn (Zea mays) [10]): 0%; plant injury at 62.5 g/ha (corn (Zea mays) [10]): 0%; plant injury at 250 g/ha (corn (Zea mays) [10]): 0%; pest or weed control at 15.625 g/ha [11]: 0%; pest or weed control at 62.5 g/ha [11]: 0%; pest or weed control at 250 g/ha [11]: 0%; pest or weed control at 15.625 g/ha [12]: 0%; pest or weed control at 62.5 g/ha [12]: 0%; pest or weed control at 250 g/ha [12]: 0%
CCS(=O)(=O)c1ccccc1NC(=O)[C@H]1C(=O)N(C)C[C@@H]1c1ccc(C(F)(F)F)cc1 (racemic) [Compound 1664],0%,10%,20%,20%,80%,80%,0%,20%,30%,0%,40%,80%,60%,80%,80%,0%,60%,70%,0%,0%,pest or weed control at 250 g/ha [7]: 20%; pest or weed control at 15.625 g/ha [8]: 0%; pest or weed control at 62.5 g/ha [8]: 20%; pest or weed control at 250 g/ha [8]: 100%; pest or weed control at 15.625 g/ha [9]: 0%; pest or weed control at 62.5 g/ha [9]: 0%; pest or weed control at 250 g/ha [9]: 0%; plant injury at 15.625 g/ha (corn (Zea mays) [10]): 0%; plant injury at 62.5 g/ha (corn (Zea mays) [10]): 0%; plant injury at 250 g/ha (corn (Zea mays) [10]): 80%; pest or weed control at 15.625 g/ha [11]: 30%; pest or weed control at 62.5 g/ha [11]: 70%; pest or weed control at 250 g/ha [11]: 90%; pest or weed control at 15.625 g/ha [12]: 0%; pest or weed control at 62.5 g/ha [12]: 40%; pest or weed control at 250 g/ha [12]: 80%

# Reference: patent US12077503B2, “Substituted cyclic amides and their use as herbicides” (FMC CORPORATION, priority 2015, dated 2024)
